Assay results: ChEMBL document CHEMBL5365422 (Bioorg Med Chem Lett, 2023)
≈ marks a conversion by molar mass, not a printed value. Calls of active or inactive are those of the source. The calls are words filed in the database; no cut-off is given here.

Experiments:
[1] = biological target: T1, Polyunsaturated fatty acid 5-lipoxygenase (Homo sapiens) (UniProt P09917); test: Binding affinity to 5-LOX (unknown origin)
T1 sequence (whole entry): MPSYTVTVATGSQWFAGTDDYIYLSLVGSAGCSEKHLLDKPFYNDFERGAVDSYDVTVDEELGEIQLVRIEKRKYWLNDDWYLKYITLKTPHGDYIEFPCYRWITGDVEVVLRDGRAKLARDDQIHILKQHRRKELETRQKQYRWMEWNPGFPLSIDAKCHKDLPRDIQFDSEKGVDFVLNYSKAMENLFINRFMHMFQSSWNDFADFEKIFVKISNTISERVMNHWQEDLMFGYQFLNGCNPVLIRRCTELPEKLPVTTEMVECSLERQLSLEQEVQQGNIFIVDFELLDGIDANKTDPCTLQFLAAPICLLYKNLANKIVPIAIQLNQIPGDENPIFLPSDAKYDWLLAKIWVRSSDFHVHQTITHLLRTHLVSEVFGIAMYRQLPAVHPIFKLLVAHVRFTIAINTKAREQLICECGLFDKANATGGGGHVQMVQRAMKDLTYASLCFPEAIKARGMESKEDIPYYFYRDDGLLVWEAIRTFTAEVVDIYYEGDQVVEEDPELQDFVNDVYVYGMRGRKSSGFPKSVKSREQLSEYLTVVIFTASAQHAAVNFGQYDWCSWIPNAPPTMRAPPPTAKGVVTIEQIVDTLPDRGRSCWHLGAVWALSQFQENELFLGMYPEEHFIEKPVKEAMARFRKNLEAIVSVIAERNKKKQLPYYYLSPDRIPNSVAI

[2] = test system: Panel NCI-60 (60 carcinoma cell lines); test: Cytotoxicity against human Panel NCI-60 (60 carcinoma cell lines) cells assessed as reduction in cell viability; format: functional
[3] = Stability of compound in human plasma assessed as drug degradation at 37 degC measured after 90 mins by LC-MS analysis; format: ADME, cell-free; settings: read-out: Drug degradation
[4] = biological target: T2, Polyunsaturated fatty acid 5-lipoxygenase (Homo sapiens, UniProt P09917); test: Inhibition of 5-LOX (unknown orgin) using arachidonic acid as substrate incubated for 10 mins by colorimetric assay
T2 sequence (P09917 whole entry): T1 sequence (whole entry)

Albumin = Albumin (Homo sapiens, UniProt P02768); test: Binding affinity to human serum albumin in phosphate buffer at pH 7.4 incubated at 298 K
Albumin, sequence (P02768 whole entry): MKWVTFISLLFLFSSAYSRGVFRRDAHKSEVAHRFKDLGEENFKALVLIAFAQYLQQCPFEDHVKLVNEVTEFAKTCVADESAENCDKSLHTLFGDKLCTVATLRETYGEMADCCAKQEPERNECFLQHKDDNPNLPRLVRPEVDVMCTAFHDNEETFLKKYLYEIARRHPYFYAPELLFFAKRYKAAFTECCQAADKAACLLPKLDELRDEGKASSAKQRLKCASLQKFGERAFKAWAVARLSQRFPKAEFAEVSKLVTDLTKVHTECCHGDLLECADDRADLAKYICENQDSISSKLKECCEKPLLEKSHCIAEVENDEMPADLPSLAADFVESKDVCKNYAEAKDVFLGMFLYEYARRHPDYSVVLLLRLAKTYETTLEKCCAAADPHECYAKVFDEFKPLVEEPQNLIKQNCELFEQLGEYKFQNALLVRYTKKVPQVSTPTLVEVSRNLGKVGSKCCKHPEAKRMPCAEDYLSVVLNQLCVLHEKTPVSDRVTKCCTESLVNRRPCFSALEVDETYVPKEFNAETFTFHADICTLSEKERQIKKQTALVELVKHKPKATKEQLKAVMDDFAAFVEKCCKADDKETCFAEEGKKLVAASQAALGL

[5] = Half life in human liver microsome by LC-MS/MS analysis; format: ADME; settings: liver microsomes
[6] = biological target: T1, Polyunsaturated fatty acid 5-lipoxygenase (Homo sapiens); test: Competitive inhibition of 5-LOX (unknown origin) using arachidonic acid as substrate by Michaelis-Menten equation based kinetic analysis
[7] = Solubility of the compound in PBS buffer by UV spectrum based solubility assay; format: physicochemical

| Compound | K [1] | LC50 (concentration killing 50% of cells) [2] | metabolised at 1.5 h [3] | IC50 [4] | K (Albumin) | half-life [5] | inhibition [6] | solubility [7] |
| --- | --- | --- | --- | --- | --- | --- | --- | --- |
| C#CCn1cccc1CC1c2ccccc2N(c2c(Cl)cccc2Cl)C1O (stereo not drawn) | 0.9 10^8/M | > 100000 nM | 4% | 250 nM | 4.1 10^4/M | – | – | – |
| O=C1C(Cc2c[nH]c3ccccc23)c2ccccc2N1c1c(Cl)cccc1Cl (stereo not drawn) | 4.2 10^8/M | > 100000 nM | 4% | 310 nM | 1.1 10^3/M | – | – | – |
| O=C1C(Cc2ccc[nH]2)c2ccccc2N1c1c(Cl)cccc1Cl (stereo not drawn) | 1.1 10^8/M | > 100000 nM | 4% | 30 nM | 3.8 10^4/M | 1.5 h | Active | 26 µM (≈ 9.29 µg/mL) |
| CCOC(=O)Cn1cc(Cc2c(O)n(-c3c(Cl)cccc3Cl)c3ccccc23)c2ccccc21 | 4.5 10^8/M | > 100000 nM | 4% | 630 nM | 2.7 10^3/M | – | – | – |
| O=C1C(Cc2cccn2Cc2ccccc2)c2ccccc2N1c1c(Cl)cccc1Cl (stereo not drawn) | 2.4 10^8/M | > 100000 nM | 4% | 490 nM | 1.2 10^4/M | – | – | – |
| COc1cc(CC2C(=O)N(c3c(Cl)cccc3Cl)c3ccccc32)cc(OC)c1OC (stereo not drawn) | 0.9 10^8/M | > 100000 nM | 4% | 260 nM | 6.9 10^4/M | – | – | – |
| Oc1c(Cc2cn(Cc3ccccc3)c3ccccc23)c2ccccc2n1-c1c(Cl)cccc1Cl | 0.8 10^8/M | > 100000 nM | 4% | 100 nM | 1.4 10^4/M | – | – | – |
| O=C(O)Cn1cc(Cc2c(O)n(-c3c(Cl)cccc3Cl)c3ccccc23)c2ccccc21 | 2.5 10^8/M | > 100000 nM | 4% | 1230 nM | 5.2 10^4/M | – | – | – |
| C#CCn1cc(Cc2c(O)n(-c3c(Cl)cccc3Cl)c3ccccc23)c2ccccc21 | 3.1 10^8/M | > 100000 nM | 4% | > 10000 nM | 1.1 10^4/M | – | – | – |
| O=C(O)Cn1cccc1Cc1c(O)n(-c2c(Cl)cccc2Cl)c2ccccc12 | 4.9 10^8/M | > 100000 nM | 4% | 430 nM | 1.4 10^4/M | – | – | – |
| C=CCn1cc(Cc2c(O)n(-c3c(Cl)cccc3Cl)c3ccccc23)c2ccccc21 | 1.8 10^8/M | > 100000 nM | 4% | 70 nM | 7.6 10^2/M | – | – | – |
| CCOC(=O)Cn1cccc1CC1c2ccccc2N(c2c(Cl)cccc2Cl)C1O (stereo not drawn) | 1.7 10^8/M | > 100000 nM | 4% | 1310 nM | 1.4 10^4/M | – | – | – |
| C=CCn1cccc1CC1C(=O)N(c2c(Cl)cccc2Cl)c2ccccc21 (stereo not drawn) | 1.4 10^8/M | > 100000 nM | 4% | 1770 nM | 1.7 10^4/M | – | – | – |
